Laboratory results reported in publication PMC6355697, “Binding Specificity of Native Odorant-Binding Protein Isoforms Is Driven by Phosphorylation and O-N-Acetylglucosaminylation in the Pig Sus scrofa” (Frontiers in Endocrinology, 2019).
Where two headings read alike, the source gives them in different places.

Columns and labels:
[1] = biological target: T1, OBP-native-iso1 (Sus scrofa, UniProt P81245); test: Fluorescence titration with the probe AMA; format: binding; settings: OBP-native-iso1 at 2.5 μM, 50 mM Tris buffer pH 7.8, estimated
T1 construct: Proteins were gently extracted from RM of pre-pubertal males of S. scrofa; from tissue; host or cells: RM (respiratory mucosa) extract of pre-pubertal male pigs, purified by two rounds of anion-exchange HPLC
T1 sequence (P81245 1-157): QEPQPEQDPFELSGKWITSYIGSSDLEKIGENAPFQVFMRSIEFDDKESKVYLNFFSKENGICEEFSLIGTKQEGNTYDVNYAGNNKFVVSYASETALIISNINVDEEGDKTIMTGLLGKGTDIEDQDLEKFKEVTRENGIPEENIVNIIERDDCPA
Procedure: (§1) Androstenone (3-keto-5α, 16-androstene), androstenol (3α-hydroxy-5α-androst-16-ene), testosterone (17β-hydroxy-3-oxo-4-androstene), palmitic acid (hexadecanoic acid), myristic acid (tetradecanoic acid), and AMA (1-aminoanthracene) were purchased from Sigma-Aldrich. UV-visible spectra were recorded on a Cary-100 double beam spectrometer (Varian) with a cell of 0.5 cm path length. The protein concentration was calculated by UV-visible spectroscopy, by using the molar extinction coefficient of 11,740 M^−1cm^−1 for OBP (calculated by the software “ProtParam tool” at www.expasy.org) at the maximum wavelength of absorption (280 nm). Steady state fluorescence measurements were performed on a Fluoromax-3 (Jobin-Yvon) spectrofluorimeter using a micro quartz cell (0.5 cm light-path) with a reflecting window. 1-Aminoantracene (AMA) was used as a fluorescent probe. The experimental conditions and data treatment have been described previously ([17]). The dissociation constant (Kd-AMA) of the OBP-AMA complex was calculated from the binding curve by fitting the experimental data with the use of the computer program Origin 7.5 (OriginLab Corporation). The affinities of the five ligands were measured in a competitive binding assay with AMA as the fluorescent probe. AMA was dissolved in 100% ethanol to yield a 1 mM stock solution. For protein titration, aliquots of AMA were successively added to the protein at 1 or 2.5 μM in 50 mM Tris buffer (pH 7.8) and emission spectra were acquired after a 15 min equilibration period. Competitive binding experiments were then carried out with different protein and ligand concentrations. The spectra were recorded 15 min after the ligand addition, and competition was monitored by following the decrease in intensity of fluorescence associated with the band of AMA bound to the protein. The apparent Kd values of the ligand-protein complexes were calculated as described in Brimau et al. ([17]).
(§2) We measured the affinity of the four native OBP isoforms for the five selected ligands under the same experimental conditions that were used previously for recombinant OBP isoforms ([17]). The four isoforms were first titrated with the fluorescent probe, AMA. OBP-native-iso3 was collected in smaller quantities than the 3 other isoforms and was used at a 1 μM concentration instead of 2.5 μM and saturated with 2 μM AMA, instead of 3.75 μM AMA. […] Two classes of isoforms, -iso1 and -iso2, bound the two fatty acids and not the steroids.

[2] = biological target: T2, OBP-native-iso2 (Sus scrofa, UniProt P81245); test: Fluorescence titration with the probe AMA; format: binding; settings: OBP-native-iso2 at 2.5 μM, 50 mM Tris buffer pH 7.8, estimated
T2 construct: Proteins were gently extracted from RM of pre-pubertal males of S. scrofa; from tissue; host or cells: RM (respiratory mucosa) extract of pre-pubertal male pigs, purified by two rounds of anion-exchange HPLC
T2 sequence (P81245 1-157): T1 sequence (P81245 1-157)
Procedure: as §1, §2

[3] = biological target: T3, OBP-native-iso3 (Sus scrofa, UniProt P81245); test: Fluorescence titration with the probe AMA; format: binding; settings: OBP-native-iso3 at 1 μM, 50 mM Tris buffer pH 7.8, estimated
T3 sequence (P81245 1-157): T1 sequence (P81245 1-157)
Procedure: as §1, §2

[4] = biological target: T4, OBP-native-iso4 (Sus scrofa, UniProt P81245); test: Fluorescence titration with the probe AMA; format: binding; settings: OBP-native-iso4 at 2.5 μM, 50 mM Tris buffer pH 7.8, estimated
T4 sequence (P81245 1-157): T1 sequence (P81245 1-157)
Procedure: as §1, §2

[5] = biological target: T1, OBP-native-iso1; test: Competitive fluorescence binding assay with AMA as probe; settings: for IC50: OBP-native-iso1 2.5 μM saturated with 3.75 μM AMA, competitor 0 to 6 μM; for Kd: calculated dissociation constant from AMA competition
Procedure: as §1, §2
(§3) Figure 6 Competitive binding assays of five selected ligands of biological relevance to native OBP isoforms from S. scrofa. (A) OBP-native-iso1; (B) OBP-native-iso2; (C) OBP-native-iso3; and (D) OBP-native-iso4. Proteins were used at 2.5 μM (A,B,D) or 1 μM (C) concentration and were saturated with 3.75 μM (A,B,D) or 2 μM (C) of the fluorescent probe 1-AMA. Competitors were added at increasing concentration from 0 to 6 μM (A,B) or to 15 μM (C,D).

[6] = biological target: T2, OBP-native-iso2; test: as above; settings: for IC50: OBP-native-iso2 2.5 μM saturated with 3.75 μM AMA, competitor 0 to 6 μM; for Kd: calculated dissociation constant from AMA competition
Procedure: as §1, §2, §3

[7] = biological target: T3, OBP-native-iso3; test: as above; settings: for binding of ligand (in words) / Kd: OBP-native-iso3; for IC50: OBP-native-iso3 1 μM saturated with 2 μM AMA, competitor 0 to 15 μM; for Kd: calculated dissociation constant from AMA competition
Procedure: as §1, §2, §3

[8] = biological target: T4, OBP-native-iso4; test: as above; settings: for binding of ligand (in words) / Kd: OBP-native-iso4; for IC50: OBP-native-iso4 2.5 μM saturated with 3.75 μM AMA, competitor 0 to 15 μM; for Kd: calculated dissociation constant from AMA competition
Procedure: as §1, §2, §3

[9] = system: OBP-native-iso4; test: as above; set-up: species or system Sus scrofa; settings: ratio of Ka values
Procedure: as §1, §2, §3

[10] = system: OBP-Pichia-iso3; set-up: method as in PMID 20589419; settings: OBP-Pichia-iso3, recombinant, phosphorylated only; cited from earlier work

With `Nc1cccc2cc3ccccc3cc12` [AMA, 1-aminoanthracene] the Kd [1] was 370 ± 20 nM, the Kd [2] was 230 ± 20 nM and the Kd [3] was 840 ± 80 nM. It also gave a Kd [4] of 500 ± 20 nM.
With `C[C@]12CC[C@@H](O)C[C@@H]1CC[C@@H]1[C@@H]2CC[C@]2(C)C=CC[C@@H]12` [Androstenol, 3α-hydroxy-5α-androst-16-ene] the IC50 ([5]; read-out: IC50) was over 6000 nM, the IC50 ([6]; read-out: IC50) was over 6000 nM and the “binding of ligand (in words)” value [7] was “bind”. For the same compound, the IC50 ([7]; read-out: IC50) was 2590 nM, the Kd [7] was 490 nM and the “binding of ligand (in words)” value [8] was “bind”. The IC50 ([8]; read-out: IC50) was 1430 nM, the Kd [8] was 160 nM and the “Ka value, OBP-native-iso4 compared with OBP-native-iso3” value [9] was “three times greater”.
In the case of `C[C@]12CCC(=O)C[C@@H]1CC[C@@H]1[C@@H]2CC[C@]2(C)C=CC[C@@H]12` [Androstenone, 3-keto-5α, 16-androstene], the IC50 ([5]; read-out: IC50) is reported as over 6000 nM, the IC50 ([6]; read-out: IC50) is reported as over 6000 nM and the “binding of ligand (in words)” value [7] is reported as “bind”. For the same compound, the IC50 ([7]; read-out: IC50) was 1280 nM, the Kd [7] was 230 nM and the “binding of ligand (in words)” value [8] was “bind”. For the same compound, the IC50 ([8]; read-out: IC50) was 1890 nM and the Kd [8] was 220 nM.
With `CCCCCCCCCCCCCC(=O)O` [Myristic acid, tetradecanoic acid] the IC50 ([5]; read-out: IC50) was 330 nM, the Kd ([5]; OBP-native-iso1) was 50 nM and the IC50 ([6]; read-out: IC50) was 1030 nM. For the same compound, the Kd ([6]; OBP-native-iso2) was 110 nM, the IC50 ([8]; read-out: IC50) was over 15000 nM and the “binding of ligand (in words)” value [10] was “to a lesser extent”.
Compound `CCCCCCCCCCCCCCCC(=O)O` [Palmitic acid, hexadecanoic acid] has an IC50 ([5]; read-out: IC50) of 1030 nM, a Kd ([5]; OBP-native-iso1) of 160 nM and an IC50 ([6]; read-out: IC50) of 1510 nM. The Kd ([6]; OBP-native-iso2) was 160 nM, the IC50 ([8]; read-out: IC50) was over 15000 nM and the “binding of ligand (in words)” value [10] was “not able to bind”.
With `C[C@]12CC[C@H]3[C@@H](CCC4=CC(=O)CC[C@@]43C)[C@@H]1CC[C@@H]2O` [Testosterone, 17β-hydroxy-3-oxo-4-androstene, reference compound] the “binding of ligand (in words)” value ([5]; OBP-native-iso1) was “None of the four native isoforms bound”, the IC50 [5] was over 6000 nM and the “binding of ligand (in words)” value ([6]; OBP-native-iso2) was “None of the four native isoforms bound”. The IC50 [6] was over 6000 nM, the “binding of ligand (in words)” value [7] was “None of the four native isoforms bound” and the IC50 [7] was over 6000 nM. The “binding of ligand (in words)” value [8] was “None of the four native isoforms bound” and the IC50 [8] was over 6000 nM.
